Common to all, as to format: cell-based
Assay [1] concerns the target T1, hCX3CR1 (Homo sapiens, UniProt P49238).
T1 sequence (P49238 1-355): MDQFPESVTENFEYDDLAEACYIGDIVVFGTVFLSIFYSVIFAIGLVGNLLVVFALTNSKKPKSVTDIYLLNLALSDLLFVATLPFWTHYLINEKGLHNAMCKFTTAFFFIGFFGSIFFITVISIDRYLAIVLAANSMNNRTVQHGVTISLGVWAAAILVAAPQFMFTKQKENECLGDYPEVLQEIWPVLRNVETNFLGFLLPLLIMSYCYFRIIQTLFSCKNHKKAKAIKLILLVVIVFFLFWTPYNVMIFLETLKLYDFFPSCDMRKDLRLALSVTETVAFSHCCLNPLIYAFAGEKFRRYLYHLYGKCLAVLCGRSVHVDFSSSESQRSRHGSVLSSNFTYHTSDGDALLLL
The assay is described as follows: Suchi5 assay (HEK/NatClytin/CNG/Suchi5 transiently transfected hCX3CR1, Fluo-8 Ca2+ readout). Further details: expressed in transfected cells; stably expresses a Ca2+ sensitive photo-protein. As to conditions: Suchi5 assay, HEK/NatClytin/CNG/Suchi5 transfected with hCX3CR1; read-out: hCX3CR1 agonism EC50. Here is the method:
Buffers and reagents. PBS (D-PBS without calcium and magnesium; EuroClone); Trypsin (Trypsin 0.05%, EDTA 0.02% in PBS; EuroClone); Opti-MEM medium (Thermo Fisher); DMSO (Sigma); Standard tyrode buffer: in-house solution (130 mM NaCl, 5 mM KCl, 2 mM CaCl2), 1 mM MgCl2, 5 mM NaHCO3, 20 mM HEPES in water at pH 7.4; sterile filtered); Screen Quest™ Fluo-8 No Wash Calcium Assay Kit (AAt Bioquest®); Lipofectamine® 2000 Reagent (Thermo Fisher); Agonist: Recombinant Human Fractalkine (CX3CL1) (PeproTech); stock: 10 μM in standard Tyrode buffer/BSA 01%; stored at −20° C.
Cell line. The final cell line for CX3CR1-Suchi5 assay is HEK/NatClytin/CNG/Suchi5 transiently transfected hCX3CR1 cDNA. In this cell line native Gαi signaling is switched to Gαq pathway thanks to the overexpression of a Gαiq chimeric G protein (called Suchi5) to direct Gαi activation towards Ca^2+ release for measurement.
Assay protocol. Experiments are performed in 384 MTP format. Transiently transfected cells are seeded at 20,000 cells/well in 25 μl/well Opti-MEM medium without selection antibiotics in 384-well plates. 4-5-hours later 25 μL/well of complete medium with 20% of FBS are added to the cells. Twenty-four hours later, cells are assayed for the response to various compounds using a fluorescent Ca^2+ sensitive dye (FLUO8-No Wash Dye) as readout.
The experiment is performed in a 384-well format according to the following procedure: • 24h after seeding, remove the culture medium. • Load cells with 20 μL/well of 0.5X FLUO-8 No Wash Dye diluted in assay buffer. • Incubate cell plates for 1 hour at RT. • Inject 10 μL/w of 3× concentrated test compounds and controls in assay buffer at the FLIPRTETRA and monitor the kinetic response over a period of 90 seconds.
Data from FLIPRTETRA measurements are analyzed with the Genedata Screener© software.

Assay [2] has as its target T1, hCX3CR1. The assay is described as follows: Ga16 assay, CX3CR1 agonism, Ca2+ sensitive photo-protein readout (FLIPRTETRA). As to conditions: human CX3CR1 cell line. Further details: expressed in transfected cells; stably expresses a Ca2+ sensitive photo-protein. Here is the method: (§1) Compounds (as well as stereoisomer(s) thereof and/or salt(s) thereof) were tested for CX3CR1 agonism in a cell based assay with fluorescent readout in Agonist Mode in dose response in quadruplicate with intra-plate modality).
(§2) Buffers and reagents. PBS (D-PBS without calcium and magnesium; EuroClone); Trypsin (Trypsin 0.05%, EDTA 0.02% in PBS; EuroClone); DMSO (Sigma); Standard tyrode buffer: in-house solution (130 mM NaCl, 5 mM KCl, 2 mM CaCl2), 1 mM MgCl2, 5 mM NaHCO3, 20 mM HEPES in water at pH 7.4; sterile filtered); Coelenterazine, native (Biosynth); stock 10 mM; Agonist: Recombinant Human Fractalkine (CX3CL1) (PeproTech); stock: 10 μM in standard tyrode buffer+BSA 0.1%; stored at −20° C.
(§3) Cell line. Human (hCX3CR1), mouse (mCX3CR1), and rat (rCX3CR1) were used for the assay.
(§4) Assay protocol. Experiments ere performed in 384 MTP format. Cells were seeded at 7,500 cells/well in 25 μl/well complete growth medium without selection antibiotics in 384-well plates. Twenty-four hours later, cells ere assayed for the response to various compounds using the Ca^2+ sensitive photo-protein stably expressed in the cells as readout.
(§5) The experiment was performed in a 384-well format according to the following procedure: • 24h after seeding, pre-incubate the cells at room temperature for 1 hour. • Then remove the culture medium. • Load cells with 20 μL/well of standard tyrode buffer+10 μM ceolenterazine. • Incubate cell plates for 3 hours at RT. • Inject 10 μL/w of 3× concentrated test compounds and controls in assay buffer at the FLIPRTETRA and monitor the kinetic response over a period of 90 seconds.
(§6) Data from FLIPRTETRA measurements were analyzed with the Genedata Screener© software. The following examples are meant to illustrate, but in no way to limit, the claimed invention.

The next assay concerns the target T2, mCX3CR1 (Mus musculus, UniProt Q9Z0D9).
T2 construct: expressed in transfected cells; stably expresses a Ca2+ sensitive photo-protein
T2 sequence (Q9Z0D9 1-354): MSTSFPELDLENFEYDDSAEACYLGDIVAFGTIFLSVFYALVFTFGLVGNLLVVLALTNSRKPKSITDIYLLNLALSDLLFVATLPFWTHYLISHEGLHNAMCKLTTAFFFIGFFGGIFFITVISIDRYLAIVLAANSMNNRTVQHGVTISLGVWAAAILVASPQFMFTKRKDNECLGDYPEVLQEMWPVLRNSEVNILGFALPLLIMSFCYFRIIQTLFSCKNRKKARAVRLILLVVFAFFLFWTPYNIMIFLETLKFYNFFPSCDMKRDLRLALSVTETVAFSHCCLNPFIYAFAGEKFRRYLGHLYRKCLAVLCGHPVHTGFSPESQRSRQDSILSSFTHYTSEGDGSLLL
The assay is described as above. As to conditions: mouse CX3CR1 cell line. Here is the method: as §1, §2, §3, §4, §5, §6

A further assay addresses T3, rCX3CR1 (Rattus norvegicus, UniProt P35411).
T3 construct: expressed in transfected cells; stably expresses a Ca2+ sensitive photo-protein
T3 sequence (P35411 1-354): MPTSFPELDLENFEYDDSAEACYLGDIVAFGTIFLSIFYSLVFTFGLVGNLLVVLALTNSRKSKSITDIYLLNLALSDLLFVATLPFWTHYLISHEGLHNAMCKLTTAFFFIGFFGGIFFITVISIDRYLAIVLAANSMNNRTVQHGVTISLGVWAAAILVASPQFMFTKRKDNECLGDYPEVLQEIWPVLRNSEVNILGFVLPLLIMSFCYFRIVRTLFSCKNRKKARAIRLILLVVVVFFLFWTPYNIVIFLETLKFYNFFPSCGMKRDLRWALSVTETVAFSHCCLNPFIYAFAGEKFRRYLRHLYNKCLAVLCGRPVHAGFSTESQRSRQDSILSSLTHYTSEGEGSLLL
The description is as above. As to conditions: rat CX3CR1 cell line. Here is the method: as §1, §2, §3, §4, §5, §6

The values that follow come from patent US12258337B2, “Bicyclic CX3CR1 receptor agonists” (Board of Regents, The University of Texas System, priority 2019, dated 2025).

A value given as a limit tells only on which side of the number the result lay.

Take `CC1(C)CN(CC2(CNC(=O)c3cc4c(s3)CCCCCC4)CCC2)CCC1O` (stereo not shown) [Example 58, N-[[1-[(4-hydroxy-3,3-dimethylpiperidin-1-yl)methyl]cyclobutyl]methyl]-4,5,6,7,8,9-hexahydrocycloocta[b]thiophene-2-carboxamide]: the EC50 was 5 µM at hCX3CR1 [1], 21.9 µM on hCX3CR1 [2], 19.1 µM at mCX3CR1 and 16.8 µM on rCX3CR1.

Regarding `CC1(O)CCCN(CC2(CNC(=O)c3cc4c(s3)CCCCCC4)CCC2)C1` (stereo not shown) [Example 59, N-[[1-[(3-hydroxy-3-methylpiperidin-1-yl)methyl]cyclobutyl]methyl]-4,5,6,7,8,9-hexahydrocycloocta[b]thiophene-2-carboxamide], the EC50 on hCX3CR1 [1] was 1 µM; at hCX3CR1 [2], 11.9 µM; on mCX3CR1 it was 9 µM; on rCX3CR1, 9.2 µM.

`CC1CCCC1(CNC(=O)c1cc2c(s1)CCCCCC2)CN1CCCC1` (stereo not shown) [Example 62, N-[[2-methyl-1-(pyrrolidin-1-ylmethyl)cyclopentyl]methyl]-4,5,6,7,8,9-hexahydrocycloocta[b]thiophene-2-carboxamide]: the 50% effective concentration (EC50) is 12.9 µM on hCX3CR1 [1], 20.8 µM at hCX3CR1 [2], 99.4 µM on mCX3CR1 and 40.9 µM at rCX3CR1.

Turning to `O=C(NCC1(CN2CCCC(O)C2)CCC1)c1cc2c(s1)CCCCCC2` (stereo not shown) [Example 65, N-[[1-[(3-hydroxypiperidin-1-yl)methyl]cyclobutyl]methyl]-4,5,6,7,8,9-hexahydrocycloocta[b]thiophene-2-carboxamide], the EC50 at hCX3CR1 [1] stood at 8.2 µM; on hCX3CR1 [2], 6 µM; at mCX3CR1, 9.2 µM; on rCX3CR1, 7.4 µM.

On to `O=C(NCC1(CN2CCC(O)C2)CCC1)c1cc2c(s1)CCCCCC2` (stereo not shown) [Example 66, N-[[1-[(3-hydroxypyrrolidin-1-yl)methyl]cyclobutyl]methyl]-4,5,6,7,8,9-hexahydrocycloocta[b]thiophene-2-carboxamide], for which the EC50 was 7.2 µM at hCX3CR1 [1], 16 µM on hCX3CR1 [2], 20.4 µM on mCX3CR1 and 11.4 µM on rCX3CR1.

As for `CC(C)(CNC(=O)c1cc2c(s1)CCCCCC2)CN1CCC(C)(O)CC1` [Example 67, N-[3-(4-hydroxy-4-methylpiperidin-1-yl)-2,2-dimethylpropyl]-4,5,6,7,8,9-hexahydrocycloocta[b]thiophene-2-carboxamide], the EC50 on hCX3CR1 [1] was found to be 14.4 µM; on hCX3CR1 [2], 18.3 µM; on mCX3CR1, 87.1 µM; on rCX3CR1, 78.9 µM.

Turning to `CC(C)(CNC(=O)c1cc2c(s1)CCCCCC2)CN1CCC(O)C(C)(C)C1` (stereo not shown) [Example 68, N-[3-(4-hydroxy-3,3-dimethylpiperidin-1-yl)-2,2-dimethylpropyl]-4,5,6,7,8,9-hexahydrocycloocta[b]thiophene-2-carboxamide], the EC50 at hCX3CR1 [1] is 19.5 µM; on hCX3CR1 [2] it was 19.7 µM; at mCX3CR1, more than 100 µM; at rCX3CR1, 63 µM.

What is called EC50 is the midpoint of the concentration-response curve.
